Measurements as given in US20090123507A1, “Metal Oxide Nanoparticles Coated With Specific N-Acylaminomethylene Phosphonates” (priority 2005, published 2009).

Columns and labels:
E. coli (ATCC 10536) = test: European Standard Assay method EN 1040, antimicrobial bioassay; type: cell-based; conditions: logarithmic scale (5 = factor of 100000); for Bioassay data E. coli 5 min: 5 min incubation; for Bioassay data E. coli 30 min: 30 min incubation
Method: (§1) The titanium dioxide particles coated with the appropriate phosphonates were subsequently assayed according the European Standard Assay method EN 1040 against two representative microbes:
(§2) S. aureaus (ATCC 6538) and E. coli (ATCC 10536).
(§3) Both microbes were incubated with the coated nanoparticles together with their corresponding free phosphonates within the same apparent concentrations for 5 and 30 minutes, respectively.
(§4) The data are given in a logarithmic scale which means that the number 5 indicates an increase of activity by a factor of 100000.

S. aureus (ATCC 6538) = test: as above; type: cell-based; conditions: logarithmic scale (5 = factor of 100000); for Bioassay data S. aureus 5 min: 5 min incubation; for Bioassay data S. aureus 30 min: 30 min incubation
Method: as §1, §2, §3, §4

CCCCCCCC/C=C/CCCCCCCC(=O)NCCP(=O)(OCC)OCC [Compound K]
<1: Bioassay data E. coli 5 min (E. coli (ATCC 10536)) | Bioassay data E. coli 30 min (E. coli (ATCC 10536)) | Bioassay data S. aureus 5 min (S. aureus (ATCC 6538)) | Bioassay data S. aureus 30 min (S. aureus (ATCC 6538))

CCOP(=O)(CCCCNC(=O)OCc1ccccc1)OCC [Compound N]
<1: Bioassay data E. coli 5 min (E. coli (ATCC 10536)) | Bioassay data E. coli 30 min (E. coli (ATCC 10536)) | Bioassay data S. aureus 5 min (S. aureus (ATCC 6538)) | Bioassay data S. aureus 30 min (S. aureus (ATCC 6538))

CCOP(=O)(CCNC(=O)CCCCCN=[N+]=[N-])OCC [Compound L]
<1: Bioassay data E. coli 5 min (E. coli (ATCC 10536)) | Bioassay data E. coli 30 min (E. coli (ATCC 10536)) | Bioassay data S. aureus 5 min (S. aureus (ATCC 6538)) | Bioassay data S. aureus 30 min (S. aureus (ATCC 6538))

CCOP(=O)(CCC#N)OCC [Compound A]
<1: Bioassay data E. coli 5 min (E. coli (ATCC 10536)) | Bioassay data E. coli 30 min (E. coli (ATCC 10536)) | Bioassay data S. aureus 5 min (S. aureus (ATCC 6538)) | Bioassay data S. aureus 30 min (S. aureus (ATCC 6538))

CCOP(=O)(CCNC(=O)CCC(=O)O)OCC [Compound M]
<1: Bioassay data E. coli 5 min (E. coli (ATCC 10536)) | Bioassay data E. coli 30 min (E. coli (ATCC 10536)) | Bioassay data S. aureus 5 min (S. aureus (ATCC 6538)) | Bioassay data S. aureus 30 min (S. aureus (ATCC 6538))

CCCCCCCCCCCCCCCCCC(=O)NCCP(=O)(OCC)OCC [Compound J]
<1: Bioassay data E. coli 5 min (E. coli (ATCC 10536)) | Bioassay data E. coli 30 min (E. coli (ATCC 10536)) | Bioassay data S. aureus 5 min (S. aureus (ATCC 6538)) | Bioassay data S. aureus 30 min (S. aureus (ATCC 6538))
